These results are taken from patent US20240408071A1, “NOVEL COMBINATION OF SEROTONIN RECEPTOR (5-HTR2B) ANTAGONIST AND AN IMMUNOMODULATOR AND CHEMOTHERAPEUTIC DRUGS FOR INHIBITION OF CANCER” (NATIONAL CENTRE FOR CELL SCIENCE, priority 2021, published 2024).

One assay relates to MC38 cells. Nature of the assay: MTT cell viability assay. Format: cell-based, mouse. The note with it: graded dose; reduced serum media; 48 hours of stimulation. The method, then:
(§1) FIG. 6 depicts that 5-HTR2B signalling in colon cancer affects cell proliferation and viability: Colon cancer MC38 cells were treated with serotonin (100 μM), 5-HTR2B agonist (BW-723C86; 50 μM), or 5-HTR2B antagonist (SB-215505; 50 μM) for 48 hours, and cell cycle analysis was performed by propidium iodide staining using flow cytometry. MC38 cells were also treated with a graded dose of 5-HTR2B agonist (BW-723C86) or serotonin. MTT assay was performed to measure cell viability. (A) After treatment with 5-HTR2B agonist BW-723C86, serotonin, or 5-HTR2B antagonist SB-215505, the relative cell cycle analysis is shown. (B) Relative cell viability data of MC38 cells following treatment of graded doses of 5-HTR2B agonist BW-723C86 or serotonin are shown. The data shown are representative of one of the three independent experiments. (C) MC38 tumor sections from the control tumor and 5-HTR2B antagonist treated tumor were stained for CD31 and the number of CD31^+ micro-blood vessels/mm^2 of tissue sections was counted and plotted to observe angiogenesis. Error bar represents ±standard error of the mean (SEM).
MC38 cells were cultured at a density of 0.5×10^4 cells/well in 96 well plates (flat bottom) and were allowed to adhere for 24 hours. […] Then, MTT crystals were dissolved with DMSO, and the reading was taken at 590 nm in an ELISA reader (Thermofisher). […]

For another assay, the system named is MC38 tumor. Put plainly: CD31+ micro-blood vessel count in MC38 tumor sections (IHC, angiogenesis). Format: in vivo, mice. Particulars: MC38 tumor harvested after 20 days of tumor inoculation. On the procedure: as §1, with “Error bar represents ±standard error of the mean (SEM).” left out
For fluorescence-based immunohistochemical staining, tissues were embedded in OCT tissue freezing media (Fisher Scientific) and stored at −80° C. […] The images were captured using Olympus FV3000 confocal microscope (Waltham, Massachusetts), and the images were analysed using Cellsens software (Olympus; Waltham, Massachusetts). […]

In the case of `CC(N)Cc1c[nH]c2ccc(OCc3cccs3)cc12` (centres unmarked) [BW-723C86], the “viability of MC38 cells” value in the assay with MC38 cells is listed as “enhanced the viability of MC38 cells”. `CC(C)c1cc(-c2ccc(F)c3ccccc23)nc(N)n1` [RS-127445]: the “number of CD31+ micro-blood vessels/mm^2 in the tumor area” value in the assay on MC38 tumor is “reduced the number of micro-blood vessels/mm^2”.
